Experimental data from patent publication US20120309677A1, “METHODS FOR REGULATING BLOOD GLUCOSE LEVELS” (Monash University, priority 2010, published 2012).

Key:
hMC5R = hMC5R (Homo sapiens, UniProt P33032); details: cited from earlier work
skeletal muscle cells = experiment: Glucose uptake in skeletal muscle cells with MC5R agonist; assay type: cell-based
[1] = Glucose disposal during ipGTT with systemic α-MSH infusion; assay type: in vivo, mice; details: for glucose disposal during ipGTT: systemic infusion (external jugular vein) 1 μg/h
Procedure: Mice were instrumented with an arterial catheter (carotid artery) to monitor blood pressure (BP), heart rate (HR) and for sampling. At the same time, a venous catheter (jugular vein) was placed to infuse α-MSH (1 μg/h) for 3 h. Blood glucose was measured before and at 10 and 20 mins of α-MSH infusion. After that, mice received an ip glucose injection (GTT, 1 mg/g). Blood glucose levels were measured at 15, 30, 60 and 120 mins after glucose challenge. BP and […] were recorded during whole procedure. The results are shown in FIGS. 5A and 5B. **[…] vs saline infusion. In a further experiment, MC4R activity was blocked using agouti-related peptide (AgRP; 1.0 nmol, 1 μl) administered (by injection to the lateral ventricle) 1 hr before commencement of the α-MSH infusion.

[2] = test system: Rat L6 skeletal muscle cells; experiment: Glucose uptake in differentiated L6 cells; assay type: cell-based; details: 100 nM α-MSH and/or 10 nM insulin; FIG. 10
Procedure: Rat L6 skeletal muscle cells were seeded in 12-well plates and differentiated in myotubes by replacing growth medium (DMEM+10% FBS) with DMEM+2% horse serum. Medium was changed every day for 1 week. Cells were preincubated for 20 min with no glucose medium+0.1% fatty acid-free BSA. 10 nM of insulin and/or 100 nM α-MSH was added to the corresponding wells. Glucose uptake was assessed for 15 min using 2-deoxy-D-[2,6-^3H]glucose (1 mmol/1, 0.5 μCi/ml) in the presence or absence of 10 nM insulin and 100 nM of α-MSH. Radioactivity was measured in cell lysates by liquid scintillation counting.

adult monkey pituitaries = experiment: α-MSH release from halved pituitaries; assay type: cell-based; details: glucose 15 mM, insulin 200 nM, 45 min; FIG. 1A
Procedure: Adult monkey pituitaries (n=22) were halved and then treated separately with artificial cerebrospinal fluid (aCSF) equilibrated with 95% O2 and 5% CO2 and incubated at 37° C. After 1 hr equilibration period, halves were incubated for 45 min in aCSF (basal period) before being challenged with glucose (Glu): 15 mM, insulin (Ins): 200 nM or Glu+Ins (15 mM+200 nM) treatments for 45 min. […] This was confirmed by measurement of α-MSH in monkey pituitaries by radioimmunoassay after acidic extraction (FIG. 1B).

[3] = α-MSH levels after ip insulin injection; assay type: in vivo; details: POMC-Kir6.2 mutant mice and control littermates; human insulin 1.0 U/kg ip; FIG. 3B
Description: POMC-mutKIR6.2 mice is a mutant in which all POMC cells lack the capacity to sense glucose due to dysfunctional ATP/K+ channels. Mutants and wild-type littermates were fed a regular diet. Blood glucose and α-MSH samples were taken after ip injection of human insulin (1.0 U/kg). The results are shown in FIG. 3A. **P<0.01 vs baseline value in the respective group by repeated-measures ANOVA. # P<0.01 vs control littermate at the respective point by single measured.

[4] = Muscle temperature in sheep during α-MSH infusion; assay type: in vivo
Procedure: Four ovariectomised ewes were placed on a diet of temporal food restriction where food was made available between 11:00-16:00 h (as depicted by the grey box in FIGS. 4A and 4B). Animals were exposed to this feeding window for at least 2 weeks prior to experimentation. Then, one week before the onset of experiments, an indwelling cannulae was surgically inserted into the external jugular vein (experiment a) or femoral artery (experiment b). At the same time, a datalogger was implanted into the vastus lateralis muscle of the hindlimb and programmed to read temperature at 15 min intervals. Animals were treated with either α-MSH 100 μg/h (▾ triangles) for experiment a or 1 μg/h for experiment b or saline (800 μl/h, […]). Infusions were carried out between 10:00-19:00 h.

soleus muscles = experiment: Glucose uptake in isolated soleus muscles (2-deoxy-D-[3H]glucose); assay type: cell-based, mice; details: 100 nM, presence and absence of 10 nM insulin
Procedure: Mice were fasted overnight and soleus muscles were dissected from anaesthetised mice. Muscles were preincubated for 30 min with 1 ml of warmed (30° C.), pregassed (95% O2-5% CO2, pH 7.4), modified Krebs-Henseleit buffer supplemented with 2 mmol/l sodium pyruvate, 8 mmol/l mannitol, and 0.1% wt/vol BSA and were then incubated with or without 10 nM insulin, α-MSH (100 nM) or α-MSH plus insulin (100 nM+10 nM) for 20 min. Glucose uptake was assessed for 10 min using 2-deoxy-D-[2,6-^3H]glucose (1 mmol/1, 0.5 μCi/ml) in the presence or absence of 10 nM insulin. Radioactivity was measured in muscle lysates by liquid scintillation counting.

p-AMPK [5] = experiment: p-AMPK levels in soleus muscles treated in vitro (Western blot); assay type: cell-based; details: lean mice; 1, 10 and 100 nM for 45 min in vitro; FIG. 8
Procedure: Soleus muscles were dissected from anaesthetised mice. Muscles were incubated with α-MSH (at 1, 10, and 100 nM) for 45 min. After that, muscles were immediately homogenised in cold RIPA lysis buffer. Homogenates were centrifugated and supernatant were collected to measure protein contents ([…]). 50 μg of each sample was loaded on a 10% Tris-Glycine pre-cast gel. A liver protein sample was run as a positive control. The gel was then transferred onto an Immobilon PVDF membrane for 2 h and after blocking for 1 h with 5% milk in TBST, was incubated o/n with anti-p-AMPK antibody (1:1000; Cell Signaling Technology, Inc, Danvers, Mass., United States of America), anti-total AMPK (1:1000, Cell Signaling Technology, Inc), or anti-GAPDH antibody (1:20000). To avoid interferences with total AMPK antibody, membranes were stripped before incubating with this antibody. Goat anti-mouse IgG horseradish peroxidase (1:50000, Santa Cruz Biotechnology, Inc, Santa Cruz, Calif., United States of America) was used as secondary antibody.

cAMP = cAMP levels in muscles after α-MSH infusion (immunoassay); assay type: in vivo; details: control mice; 45 minutes of α-MSH infusion; FIG. 9A
Procedure: To measure cAMP concentrations and to determine p-AMPK protein expression in muscles, an experiment was conducted according to a similar design to that described in FIG. 5. Muscle tissues were obtained after 45 minutes of initiating α-MSH infusion and 25 minutes of administering glucose injection. cAMP concentration was determined with a direct immunoassay kit (BioVision Research Products, Mountain View, Calif., United States of America). The kit has a cAMP polyclonal antibody onto the plate. cAMP-HRP conjugates directly compete with cAMP from sample binding to the cAMP antibody on the plate. The HRP activity at 450 nm is inversely proportional to the cAMP concentration in samples. White bars: saline infusion, dark bars: α-MSH infusion

p-AMPK [6] = experiment: p-AMPK protein expression in muscles after α-MSH infusion (Western blot); assay type: in vivo; details: control mice, FIG. 9B
Procedure: To measure cAMP concentrations and to determine p-AMPK protein expression in muscles, an experiment was conducted according to a similar design to that described in FIG. 5. Muscle tissues were obtained after 45 minutes of initiating α-MSH infusion and 25 minutes of administering glucose injection. cAMP concentration was determined with a direct immunoassay kit (BioVision Research Products, Mountain View, Calif., United States of America). The kit has a cAMP polyclonal antibody onto the plate. cAMP-HRP conjugates directly compete with cAMP from sample binding to the cAMP antibody on the plate. The HRP activity at 450 nm is inversely proportional to the cAMP concentration in samples. White bars: saline infusion, dark bars: α-MSH infusion p-AMPK and total AMPK were determined by Western blot. Results shown in FIG. 9B are expressed as a ratio P/Total AMPK. *P<0.05

Chain of hMC5R (P33032 whole entry): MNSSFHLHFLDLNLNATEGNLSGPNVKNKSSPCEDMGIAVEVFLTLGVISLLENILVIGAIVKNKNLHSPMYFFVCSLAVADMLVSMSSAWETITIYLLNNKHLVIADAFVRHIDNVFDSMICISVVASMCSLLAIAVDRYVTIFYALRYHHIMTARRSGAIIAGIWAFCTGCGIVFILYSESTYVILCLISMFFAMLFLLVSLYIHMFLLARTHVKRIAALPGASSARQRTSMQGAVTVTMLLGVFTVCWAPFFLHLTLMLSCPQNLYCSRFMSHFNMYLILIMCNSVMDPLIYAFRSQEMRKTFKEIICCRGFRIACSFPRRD

Ac-Nle-c[Asp-Hyp-D-Nal(2′)-Arg-Trp-Lys]-NH2 [PG-911]
EC50 (hMC5R): 0.031 nM

Ac-Nle-c[Asp-Pro-D-Nal(2′)-Arg-Trp-Lys]-NH2 (XDPXRWK; Ac, amide, cyclic lactam, Nle, D-Nal(2'); PG-901)
increases of glucose uptake in skeletal muscle cells (skeletal muscle cells; 1 nM and 5 nM amounts, FIG. 5D): 30-40%
effect of an MC3R and MC4R antagonist on the increase of glucose uptake (skeletal muscle cells; 1 nM and 5 nM amounts, data not shown): unaffected by the presence of an MC3R and MC4R antagonist
glucose uptake in muscle cells (skeletal muscle cells; FIG. 5D): increases glucose uptake in muscle cells

agouti-related peptide (SSRRCVRLHESCLGQQVPCCDPCATCYCRFFNAFCYCRKLGTAMNPCSRT; UniProt O00253 83-132, looked up) [AgRP, reference compound]
effect on the response (increased glucose disposal) to α-MSH infusion ([1]; AgRP 1.0 nmol to lateral ventricle 1 hr before α-MSH infusion, to block MC4R, FIG. 5C): does not prevent the response

insulin
glucose uptake by rat L6 cells [2]: increases in glucose uptake
α-MSH release from pituitaries (adult monkey pituitaries): stimulate α-MSH release
α-MSH levels in response to insulin [3]: do not change

α-melanocyte stimulating hormone (SYSMEHFRWGKPV) [α-MSH, native peptide; native agonist for the type 1, 3, 4 and 5 melanocortin receptors]
muscle temperature ([4]; direct infusion into femoral artery, 1 μg/h, FIG. 4B): causes an increase in muscle temperature
post-prandial muscle temperature ([4]; systemic infusion (external jugular vein), 100 μg/h, FIG. 4A): increases post-prandial muscle temperature
response to α-MSH infusion ([1]; MC4R KO mice, data not shown): intact response
glucose disposal during ipGTT ([1]; control mice, FIG. 5A): increases glucose disposal
glucose disposal during ipGTT ([1]; obese (DIO) mice, FIG. 5B): does not increase glucose disposal
glucose uptake in soleus muscles (soleus muscles; control mice, FIG. 6A): increases glucose uptake
glucose uptake in soleus muscles (soleus muscles; obese mice, FIG. 6B): does not increase glucose uptake
p-AMPK muscle levels (p-AMPK [5]): dose-dependent increase of p-AMPK muscle levels
cAMP levels in muscles (cAMP): increase of cAMP levels
p-AMPK protein expression in muscles (ratio P/Total AMPK) (p-AMPK [6]): increased
glucose uptake by rat L6 cells [2]: increases in glucose uptake
